Data set [1] has as its system TNBS-induced colonic inflammation. The data set can be described thus: TNBS model, Compound N and comparison with 5-ASA. It is filed as in vivo, rats. As for the experimental part: Male Sprague-Dawley rats (200-250 g) were housed in standard cages (2 per cage) and fed rat chow and tap water ad libitum. After an overnight fast, rats were brought into the laboratory and randomized into treatment groups. Colitis was induced by intrarectal administration of 0.5 ml of TNBS solution (50 mg/kg in 50% ethanol) using a 1 ml syringe attached to a 5 cm polyethylene catheter. Control animals received saline (0.9%) or a 1 % methyl cellulose suspension at identical time points.
Three days after TNBS administration, the rats were sacrificed and the colons excised and opened longitudinally.
Compound N was subjected to a series of TNBS activity tests as just described.
Groups of rats (11 rats/group) were administered Compound N (10 mg/kg po), 5-ASA (10 mg/kg po), 5-ASA (300 mg/kg po), or the methylcellulose vehicle 1 hour prior to the TNBS enema. After 3 days the rats were sacrificed and the colonic damage morphologically evaluated.
Groups of rats, were administered increasing doses of Compound N (0-100 mg/kg-po) 1 hour prior to TNBS enema. In these experiments the endpoint was macroscopic assessment.

Data set [2] deals with inflammatory bowel disease. The note with it: cited from earlier work; for effectiveness in small bowel inflammation / side-effects (in words): IBD patients.
Data set [3] has as its system TNBS induced model of colitis. Conditions: only if multiple high doses administered intra-rectally; cited from earlier work.
Data set [4] can be described thus: PK parameter estimates, 30 mg/kg po (Table 1). The class given is in vivo, rats. The note with it: Compound N relative to Compound A, rats, 30 mg/kg po; 30 mg/kg. As for the experimental part: The bioavailability of compound N is depicted in FIG. 10 as well. |(NRTs Dosed 30 mg/kg po in 1% Methyl Cellulose, n = 3 rats/NRT)
The subject of a further data set is lethality induced by LPS. Conditions: various rodent models of septic shock; cited from earlier work.
Data set [5] concerns senescence accelerated mice. The note with it: cited from earlier work.
The subject of data set [6] is inducible nitric oxide synthetase (iNOS). The note with it: cited from earlier work.
The conditions of data set [7]: following ischemia; cited from earlier work.
Data set [8] deals with adjuvant induced arthritis. In words: Rat adjuvant induced arthritis model of chronic inflammation. The class given is in vivo. The note with it: Compound A 100 mg/kg po or dexamethasone 0.1 mg/kg, daily 7 days, vs adjuvant. As for the experimental part:
Confirmation of the anti-inflammatory activity of Compound A was sought in another related biological test-the rat adjuvant induced arthritis model of chronic inflammation. This model was selected because almost all of the anti-IBD agents also show efficacy in standard arthritis models. In this model Compound A was tested at 100 mg/kg, po in a 1 % methyl cellulose suspension. On day 0 all animals received an injection of either Mycobacterium butyricum (100μL, 20 mg/mL in mineral oil) or mineral oil in the base of the tail. 14 days after this injection, rat paws were measured and all the rats were randomized into 3 treatment groups of 8. A control adjuvant group (group without further treatment), a group to be treated with dexamethasone (steroid reference) and a group to treated with Compound A. Rats received Compound A 100 mg/kg, po, or dexamethasone 0.1 mg/kg, op, daily until day 21 (7 days dosing). On day 21 rats were sacrificed. Paw measurements were taken after 5 and 7 days treatment.

The mark [9] stands for this setting: 0-100 mg/kg po, 1 hour prior to TNBS.

Molecules are shown by their SMILES. Entries after “also recorded” stand apart in the source; their conditions may differ.

`Nc1ccc(O)c(C(=O)O)c1` [Compound 5-ASA]: the “effect on TNBS-induced colonic inflammation, 5-ASA 10 mg/kg” value in data set [1] (10 mg/kg po, 1 hour before TNBS) is “no effect”. In addition, the “effect on TNBS-induced colonic inflammation, 5-ASA 300 mg/kg” value in [1] (300 mg/kg po, 1 hour before TNBS) is reported as “no effect”. The “time to full efficacy” value in data set [2] (5-ASA therapy) was 6-8 weeks. In data set [2], the “response in Crohn's disease” value is recorded as “poor”, the “response in early ulcerative colitis” value is “fair to mild” and the “response in severe ulcerative colitis” value is reported as “poor”. The “protection, 5-ASA intra-rectal” value in data set [3] is recorded as 50%.
Turning to `CC(C)(C)NC(=O)c1ccc(N)cc1` [Compound N, N-tert-butyl-4-aminobenzamide], the “clearance / systemic exposure / variability (in words)” value in data set [4] is listed as “lower clearance; also recorded: overall greater systemic exposure; also recorded: relatively low variability in plasma concentration”. In data set [1] (setting [9]), the “colonic morphological score, dose-response (in words)” value is reported as “dose=dependent reduction in the colonic morphological score”; the significance of protection entry is “only significant (p <0.05) at the 10, 30 and 100 mg/kg doses”. In addition, the “efficacy, 10 mg/kg po, Compound N” value in [1] (10 mg/kg po single dose, 1 hour before TNBS) is reported as “excellent efficacy”. In data set [1] (TNBS activity tests), the “activity relative to Compound A” value was “better activity than that of Compound A” and the protection came to 75%.
Regarding `CC(C)(C)[N+]([O-])=Cc1ccccc1` [PBN, α-phenyl-t-butyl nitrone], the “protection against lethality induced by LPS” value in the data set with lethality induced by LPS is “consistent and well documented protection”. Further, the “increase of life span” value in data set [5] is on record as “one third”. In data set [6], the “block of iNOS” value is on record as “block inducible nitric oxide synthetase”. Also, the “trapping of reactive oxygen species and/or secondary free radicals” value in data set [7] is listed as “trap reactive oxygen species and/or secondary free radicals”.
Consider `C[C@@H]1C[C@H]2[C@@H]3CCC4=CC(=O)C=C[C@]4(C)[C@@]3(F)[C@@H](O)C[C@]2(C)[C@@]1(O)C(=O)CO` [dexamethasone, reference compound], for which, in data set [8], the “inhibition of the inflammatory response” value is “significant inhibition of the inflammatory response (p<0.005)”.
As to `O=C(O)c1cc(/N=N/c2ccc(O)c(C(=O)O)c2)ccc1O` [olsalazine], in [2], the “effectiveness in small bowel inflammation” value was “Neither sulfasalazine nor olsalazine are effective” and the “side-effects (in words)” value is listed as “side effects are reduced”.
Turning to `Nc1ccc(S(=O)(=O)Nc2ccccn2)cc1` [sulfapyridine], in [2], the “side-effects (in words)” value is “significant side-effects such as reversible sperm abnormalities, dyspepsia or allergic reactions to the sulpha component”. In data set [2] (sulfapyridine component of sulfasalazine), the “patients who cannot tolerate” value is “at least 20 % of patients”.
Turning to `O=C(O)c1cc(/N=N/c2ccc(S(=O)(=O)Nc3ccccn3)cc2)ccc1O` [sulfasalazine], in [2], the “response in Crohn's disease” value is listed as “poor”, the “effectiveness in small bowel inflammation” value is “Neither sulfasalazine nor olsalazine are effective”, the “response in early ulcerative colitis” value is listed as “fair to mild” and the “response in severe ulcerative colitis” value is on record as “poor”.

The values above are taken from patent publication US6194465A, “Benzamide therapeutics for the treatment of inflammatory bowel disease” (priority 1999, dated 2001).
